Laboratory results published in publication PMC8387461, “T cell receptor recognition of hybrid insulin peptides bound to HLA-DQ8” (Nature Communications, 2021).

How the values were obtained:
SKW-3 A2.13 TCR cells = test: CD69 upregulation, SKW-3 A2.13 TCR cells; type: cell-based, human; conditions: for MFI CD69: exp5
Method: (§1) For TCR transduced SKW-3 T cell lines (SKW-3-TCR), response to antigen was determined using flow cytometry to assess the level of upregulation of the T cell activation marker CD69. One hundred thousand BLCL 9031 cells (HLA-DQ8 + : HLA-DQA*03:01:01, HLA-DQB1*03:02) as APCs were incubated at 37 °C, 5% CO2 for 24 h with increasing concentrations of synthesised HIP ([…]; GLBiochem) or native C-peptide ([…]; GLBiochem) or 50 μg DQ8-glia-α1 (control) in 96 well round-bottomed plates. To confirm HLA-DQ8-restriction, 2 μg/ml (SKW-3-ET672-1) or 50 μg/ml (all other SKW-3-TCR cell lines) C-peptide or HIP pulsed BLCL 9031 cells were blocked with a final concentration of 20 μg/ml anti-HLA-DQ monoclonal antibody (clone SPV-L3) for 3 h before stimulation (i.e. before the addition of SKW-3-TCR cell lines). T-cell activation assay were performed by mixing 1 × 10^5 SKW-3-TCR cells, SKW-3 parental cells (control) or SP3.4 (HLA-DQ8-glia-α1 restricted T cell line; control) cells with the peptide-pulsed BLCL 9031 cells or with 5 μl anti-CD3/CD28 dynabeads (Thermo Fisher Scientific) (control) at 37 °C, 5% CO2 for 20 h before antibody staining. The activated induced SKW-3-TCR T cells were washed twice with FACS buffer (Phosphate buffered saline, 10% Fetal Calf Serum (FCS; Merck)) (350 g, 5 min), and stained a mixture of 1:100 diluted V450 mouse anti-human CD3 (clone UCHT1, BD Biosciences) and APC Mouse Anti-Human CD69 (Clone FN50, BD Biosciences) for 1 h on ice in the dark. The samples were washed twice with PBS buffer (350 g, 5 min) to remove excess antibodies. Afterward, the samples were stained for live/dead cells with Zombie NIR (Biolegend) for 30 min at RT in the dark before being washed 6 times with FACS buffer (350 g, 5 min). Before data acquisition, the samples were resuspended in 100 μl of FACS buffer and analysed via flow cytometry (LSR II; BD Biosciences; BD FACSDiva-8.0.1 software). Collected data were analysed using Flowjo v10.6.0 (FlowJo), and then Prism 9 (GraphPad Software). […] Using these settings, the median fluorescence intensity (MFI) corresponding to the relative level of CD69 expressed on the SKW-3-TCR.TCR cell lines was determined using Flowjo v10.6.0 software. The MFI of CD69 were analysed by using Prism 9 (GraphPad Software). Three to six independent experiments were conducted, and all sample were performed in duplicates. Statistical significance was determined using P-values generated by t-test or one-way ANOVA multiple comparison of the MFI of no-peptide-stimulated SKW-3-TCR T cells versa the MFI of peptide-stimulated SKW-3-TCR T cells.
(§2) Supplementary Figure 1. Antigen reactivity of T cells transduced with TCRs isolated from T1D patient clones and recent onset T1D patient PBMCs. a, b Expression of CD69 on the surface of TCR transduced SKW3 cell lines stimulated overnight with C-peptide-p ulsed BLCL 9031 (top panel), or HIP-p ulsed BLCL 9031 (bottom panel). The SKW3 cell lines transduced with a TCRs isolated from primary T1D T clones and b TCRs isolated from recent onset T1D patient PBMCs (TCR name indicated above the graphs), were cultured with BLCL 9031 (no peptide) or with serial diluted concentration of peptide as indicated (grey), or 50 µg/ml C-peptide/HIP-pulsed BLCL 9031 blocked by anti-H LA-D Q mAb (clone SPV-L3; 20 µg/ml) (black), or 50 µg/ml glia-α1-p ulsed BLCL 9031 (purple; control), or 50 µg/ml C-peptide/HIP peptide only (cyan; control), or T cell lines alone (pink; control). Due to the strong reactivity of the SKW-T CR E672-1 cell line to HIP, only 2 µg of HIP was used in anti-HLA-D Q mAb blocking experiments. All samples were performed in duplicates and the black dots are presented as the mean fluorescence intensity (MFI) of average of duplicated values from three to six (n=3, n=4, n=5 or n=6) independent experiments. […]
(§3) expression. The fold increase in MFI CD69 expression was calculated by dividing the average MFI CD69 from each sample by the average MFI CD69 from BLCL 9031 (no […]
(§4) peptide). […]

SKW-3 A5.5 TCR cells = test: CD69 upregulation, SKW-3 A5.5 TCR cells; type: cell-based, human;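 for Geometric CD3: measured on live single GFP+ RFP+ cells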
Method: as §1, §2, §3, §4

[1] = exp4, T cell +pep, 50 ug, replicate 1
[2] = exp4, T cell +pep, 50 ug, replicate 2
[3] = exp4, block, 50 ug, replicate 1
[4] = exp4, block, 50 ug, replicate 2
[5] = exp5, T cell +pep, 50 ug, replicate 1
[6] = exp5, T cell +pep, 50 ug, replicate 2
[7] = exp5, block, 50 ug, replicate 1
[8] = exp5, block, 50 ug, replicate 2
[9] = CD69 MFI, flow cytometry, peptide-pulsed BLCL 9031, 20 h

Cpeptide
MFI CD69 (SKW-3 A2.13 TCR cells; 0.016 ug, replicate 1): 1218
MFI CD69 (SKW-3 A2.13 TCR cells; 0.016 ug, replicate 2): 1366
MFI CD69 (SKW-3 A2.13 TCR cells; 0.08 ug, replicate 1): 1349
MFI CD69 (SKW-3 A2.13 TCR cells; 0.08 ug, replicate 2): 1478
MFI CD69 (SKW-3 A2.13 TCR cells; 0.4 ug, replicate 1): 1535
MFI CD69 (SKW-3 A2.13 TCR cells; 0.4 ug, replicate 2): 1892
MFI CD69 (SKW-3 A2.13 TCR cells; 2 ug, replicate 1): 1776
MFI CD69 (SKW-3 A2.13 TCR cells; 2 ug, replicate 2): 2613
MFI CD69 (SKW-3 A2.13 TCR cells; 10 ug, replicate 1): 4442
MFI CD69 (SKW-3 A2.13 TCR cells; 10 ug, replicate 2): 4296
MFI CD69 (SKW-3 A2.13 TCR cells; 50 ug, replicate 1): 5931
MFI CD69 (SKW-3 A2.13 TCR cells; 50 ug, replicate 2): 5830
MFI CD69 (SKW-3 A2.13 TCR cells; 100 ug, replicate 1): 5697
MFI CD69 (SKW-3 A2.13 TCR cells; 100 ug, replicate 2): 6898
MFI CD69 (SKW-3 A2.13 TCR cells; T cell +pep, 50 ug, replicate 1): 712
MFI CD69 (SKW-3 A2.13 TCR cells; T cell +pep, 50 ug, replicate 2): 880
MFI CD69 (SKW-3 A2.13 TCR cells; block, 50 ug, replicate 1): 796
Geometric CD3 (SKW-3 A5.5 TCR cells; exp4, 0.016 ug, replicate 1): 970
MFI CD69 (SKW-3 A5.5 TCR cells; exp4, 0.016 ug, replicate 1): 898
Geometric CD3 (SKW-3 A5.5 TCR cells; exp4, 0.016 ug, replicate 2): 979
MFI CD69 (SKW-3 A5.5 TCR cells; exp4, 0.016 ug, replicate 2): 906
Geometric CD3 (SKW-3 A5.5 TCR cells; exp4, 0.08 ug, replicate 1): 1058
MFI CD69 (SKW-3 A5.5 TCR cells; exp4, 0.08 ug, replicate 1): 987
Geometric CD3 (SKW-3 A5.5 TCR cells; exp4, 0.08 ug, replicate 2): 1030
MFI CD69 (SKW-3 A5.5 TCR cells; exp4, 0.08 ug, replicate 2): 964
Geometric CD3 (SKW-3 A5.5 TCR cells; exp4, 0.4 ug, replicate 1): 1103
MFI CD69 (SKW-3 A5.5 TCR cells; exp4, 0.4 ug, replicate 1): 1037
Geometric CD3 (SKW-3 A5.5 TCR cells; exp4, 0.4 ug, replicate 2): 1058
MFI CD69 (SKW-3 A5.5 TCR cells; exp4, 0.4 ug, replicate 2): 984
Geometric CD3 (SKW-3 A5.5 TCR cells; exp4, 2 ug, replicate 1): 1233
MFI CD69 (SKW-3 A5.5 TCR cells; exp4, 2 ug, replicate 1): 1175
Geometric CD3 (SKW-3 A5.5 TCR cells; exp4, 2 ug, replicate 2): 1197
MFI CD69 (SKW-3 A5.5 TCR cells; exp4, 2 ug, replicate 2): 1130
Geometric CD3 (SKW-3 A5.5 TCR cells; exp4, 10 ug, replicate 1): 1614
MFI CD69 (SKW-3 A5.5 TCR cells; exp4, 10 ug, replicate 1): 1582
Geometric CD3 (SKW-3 A5.5 TCR cells; exp4, 10 ug, replicate 2): 1577
MFI CD69 (SKW-3 A5.5 TCR cells; exp4, 10 ug, replicate 2): 1557
Geometric CD3 (SKW-3 A5.5 TCR cells; exp4, 50 ug, replicate 1): 2018
MFI CD69 (SKW-3 A5.5 TCR cells; exp4, 50 ug, replicate 1): 2047
Geometric CD3 (SKW-3 A5.5 TCR cells; exp4, 50 ug, replicate 2): 1694
MFI CD69 (SKW-3 A5.5 TCR cells; exp4, 50 ug, replicate 2): 1685
Geometric CD3 (SKW-3 A5.5 TCR cells; exp4, 100 ug, replicate 1): 3490
MFI CD69 (SKW-3 A5.5 TCR cells; exp4, 100 ug, replicate 1): 3626
Geometric CD3 (SKW-3 A5.5 TCR cells; exp4, 100 ug, replicate 2): 3657
MFI CD69 (SKW-3 A5.5 TCR cells; exp4, 100 ug, replicate 2): 3824
Geometric CD3 (SKW-3 A5.5 TCR cells; [1]): 739
MFI CD69 (SKW-3 A5.5 TCR cells; [1]): 670
Geometric CD3 (SKW-3 A5.5 TCR cells; [2]): 745
MFI CD69 (SKW-3 A5.5 TCR cells; [2]): 679
Geometric CD3 (SKW-3 A5.5 TCR cells; [3]): 1084
MFI CD69 (SKW-3 A5.5 TCR cells; [3]): 1022
Geometric CD3 (SKW-3 A5.5 TCR cells; [4]): 1068
MFI CD69 (SKW-3 A5.5 TCR cells; [4]): 1007
Geometric CD3 (SKW-3 A5.5 TCR cells; exp5, 0.016 ug, replicate 1): 1160
MFI CD69 (SKW-3 A5.5 TCR cells; exp5, 0.016 ug, replicate 1): 1101
Geometric CD3 (SKW-3 A5.5 TCR cells; exp5, 0.016 ug, replicate 2): 1175
MFI CD69 (SKW-3 A5.5 TCR cells; exp5, 0.016 ug, replicate 2): 1127
Geometric CD3 (SKW-3 A5.5 TCR cells; exp5, 0.08 ug, replicate 1): 1165
MFI CD69 (SKW-3 A5.5 TCR cells; exp5, 0.08 ug, replicate 1): 1110
Geometric CD3 (SKW-3 A5.5 TCR cells; exp5, 0.08 ug, replicate 2): 1145
MFI CD69 (SKW-3 A5.5 TCR cells; exp5, 0.08 ug, replicate 2): 1084
Geometric CD3 (SKW-3 A5.5 TCR cells; exp5, 0.4 ug, replicate 1): 1217
MFI CD69 (SKW-3 A5.5 TCR cells; exp5, 0.4 ug, replicate 1): 1166
Geometric CD3 (SKW-3 A5.5 TCR cells; exp5, 0.4 ug, replicate 2): 1219
MFI CD69 (SKW-3 A5.5 TCR cells; exp5, 0.4 ug, replicate 2): 1163
Geometric CD3 (SKW-3 A5.5 TCR cells; exp5, 2 ug, replicate 1): 1325
MFI CD69 (SKW-3 A5.5 TCR cells; exp5, 2 ug, replicate 1): 1295
Geometric CD3 (SKW-3 A5.5 TCR cells; exp5, 2 ug, replicate 2): 1288
MFI CD69 (SKW-3 A5.5 TCR cells; exp5, 2 ug, replicate 2): 1227
Geometric CD3 (SKW-3 A5.5 TCR cells; exp5, 10 ug, replicate 1): 1582
MFI CD69 (SKW-3 A5.5 TCR cells; exp5, 10 ug, replicate 1): 1562
Geometric CD3 (SKW-3 A5.5 TCR cells; exp5, 10 ug, replicate 2): 1544
MFI CD69 (SKW-3 A5.5 TCR cells; exp5, 10 ug, replicate 2): 1512
Geometric CD3 (SKW-3 A5.5 TCR cells; exp5, 50 ug, replicate 1): 2599
MFI CD69 (SKW-3 A5.5 TCR cells; exp5, 50 ug, replicate 1): 2696
Geometric CD3 (SKW-3 A5.5 TCR cells; exp5, 50 ug, replicate 2): 2645
MFI CD69 (SKW-3 A5.5 TCR cells; exp5, 50 ug, replicate 2): 2725
Geometric CD3 (SKW-3 A5.5 TCR cells; exp5, 100 ug, replicate 1): 3392
MFI CD69 (SKW-3 A5.5 TCR cells; exp5, 100 ug, replicate 1): 3527
Geometric CD3 (SKW-3 A5.5 TCR cells; exp5, 100 ug, replicate 2): 3273
MFI CD69 (SKW-3 A5.5 TCR cells; exp5, 100 ug, replicate 2): 3433
Geometric CD3 (SKW-3 A5.5 TCR cells; [5]): 840
MFI CD69 (SKW-3 A5.5 TCR cells; [5]): 793
Geometric CD3 (SKW-3 A5.5 TCR cells; [6]): 856
MFI CD69 (SKW-3 A5.5 TCR cells; [6]): 819
Geometric CD3 (SKW-3 A5.5 TCR cells; [7]): 761
MFI CD69 (SKW-3 A5.5 TCR cells; [7]): 694
Geometric CD3 (SKW-3 A5.5 TCR cells; [8]): 846
MFI CD69 (SKW-3 A5.5 TCR cells; [8]): 770

GQVELGGGNAVEVLK [HIP]
sensitivity to HIP versus C-peptide (SKW-3 A2.13 TCR cells; [9]): five fold more sensitive to HIP than C-peptide
sensitivity to HIP over C-peptide (SKW-3 A5.5 TCR cells; [9]): ~ 3000 fold
